The text below walks through data of PMC11650737, “Developing MYC Degraders Bearing the Von Hippel–Lindau Ligand to Target the “Undruggable” MYC” (ACS Pharmacology & Translational Science, 2024).

Where “and” joins values, the source holds several entries; their conditions need not be identical. Equal entries are not always repeated. Entries after “also recorded” stand apart in the source; their conditions may differ. Where two headings read alike, the source gives them in different places.

In one series the test system is PSN1 cells. Also noted: method as in PMID 34838332. Particulars: PSN1 cells ref 13; read-out: GI50 (viability); cited from earlier work.
The next series relates to HCT116 cells. More on the design: method as in PMID 34838332. Particulars: HCT116 cells ref 13; read-out: GI50 (viability); cited from earlier work.
In the next series the target is T1, c-MYC (Homo sapiens, UniProt P01106).
T1 construct: endogenous in cells; host or cells: PC3
T1 sequence (P01106 whole entry): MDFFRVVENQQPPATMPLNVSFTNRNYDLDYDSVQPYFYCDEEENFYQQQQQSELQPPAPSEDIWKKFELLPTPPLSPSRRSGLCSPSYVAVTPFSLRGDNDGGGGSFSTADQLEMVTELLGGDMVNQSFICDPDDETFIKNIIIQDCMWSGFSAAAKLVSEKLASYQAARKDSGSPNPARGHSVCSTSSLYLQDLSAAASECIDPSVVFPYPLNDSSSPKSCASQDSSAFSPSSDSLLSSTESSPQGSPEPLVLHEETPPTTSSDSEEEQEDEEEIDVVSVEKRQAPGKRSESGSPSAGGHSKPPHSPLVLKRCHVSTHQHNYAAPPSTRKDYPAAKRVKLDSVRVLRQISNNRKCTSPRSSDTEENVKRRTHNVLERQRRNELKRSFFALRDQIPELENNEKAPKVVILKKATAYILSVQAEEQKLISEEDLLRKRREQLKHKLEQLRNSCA
The series can be described thus: MYC degradation in PC3 cells, Western blot. The class given is cell-based. As to conditions: for MYC degradation (MYC levels by Western blot): 10 μΜ, 24 h. As to the method: The ability of novel compounds to induce MYC degradation in the PC3 cell line was evaluated via a Western blot-based assay. […] A PROTAC that effectively degrades bromodomain and extra-terminal (BET) family proteins, with indirect action on MYC levels, BETd-260, was also included in these experiments as a positive control. BETd-260 was tested at a lower concentration (1 μΜ) due to its high potency.[26]
PC3 cells were used for the determination of MYC levels after treatment with the PROTACs under study. Cells (at a density of 250 000 per well) were seeded in 6-well plates for 24 h until 60% confluence. During the 24-h incubation period, cells were treated with the tested compounds (10 μΜ) and BETd-260 (1 μΜ) that was used as a positive control. For rescue experiments, cells were pretreated with the inhibitor MG-132 for 2 h, and then, the medium was removed, followed by the addition of the selected compound. After the 24-h incubation period, a cell lysis protocol was performed. The medium was removed, and the cells were rinsed with cold PBS. Lysis was induced using RIPA lysis buffer (50 mM Tris-HCl at pH 7.5, 150 mM NaCl, 5 mM Na2EDTA, 1 mM EGTA, 0.1% SDS, 1% NP-40, 0.5% sodium deoxycholate, 8 mM sodium fluoride, and 1 mM sodium orthovanadate) and protease inhibitor cocktail (Roche, UK). Total protein concentration in lysate samples was determined via performance of the Bradford assay in bovine serum albumin (BSA). Standard and unknown samples were preformulated in Coomassie blue G-250 assay reagent (Thermo Fisher Scientific, MA, USA), followed by a readout at 595 nm. Separation of the protein isolated from PC3 lysates, respectively (10 μg), with NuPAGE sample reducing agent and NuPAGE LDS sample buffer (Invitrogen, UK), was achieved via SDS-PAGE electrophoresis at 110 V for 2 h, prior to overnight transfer to the polyvinylidene difluoride (PVDF) membrane. The membranes were then blocked in 5% nonfat dry milk in Tris-buffered saline with 0.1% Tween-20 (TBST-T) for 1 h at room temperature.
Detection of MYC in PC3 cells was accomplished via immunoblot of the POI with the indicated monoclonal antibody (Cell Signaling Technology, MA, USA, catalog number #5605) at 1:1000 in TBST at […] overnight. The secondary anti-rabbit peroxidase-conjugate antibody (Cell Signaling Technology, MA, USA, catalog number #7074) was further added at 1:2000 dilution, followed by 1-h incubation at room temperature. Chemiluminescent visualization of the MYC protein bands was performed after the addition of Immobilon Crescendo Western HRP substrate (Sigma-Aldrich, Munich, Germany). For normalization of MYC concentration, GAPDH was labeled using the specific rabbit monoclonal antibody (Cell Signaling Technology, MA, USA, catalog number #5174) at 1:20000 in 5% nonfat dry milk. Protein bands were quantified with the ImageJ software.
(In general: In western blotting, separated proteins are transferred to a membrane and probed.)

Series [1] deals with SKBR3 cells. The series can be described thus: Cell viability (MTT) assay, SKBR3. The class given is cell-based, human. As to the method:
(§1) The antiproliferative activity of the synthesized compounds was tested in cell viability assays optimally set up for various cancer cell lines (results are depicted in Table 2, n = 3, average IC50 (μM) ± SD).
(§2) Cells were plated at a density of 5 × 10^3 cells per well on 96-well plates. After 24 h of incubation (37 °C, 5% CO2), the cell medium was removed, and compounds were added at selected concentrations (0.1–100 μM), followed by incubation for 72 h. Control cells were treated with 0.4% DMSO medium to match the conditions in the wells where drugs were added. After 72 h, the medium was removed, and the 3-(4,5-dimethylthiazol-2-yl)-2,5-diphenyltetrazolium bromide (MTT) solution (0.3 mg/mL in PBS) was added to cells for 3 h under no light conditions. The MTT solution was removed, and the formazan crystals were dissolved in 100 μL of DMSO. The optical density was measured at 570 nm with a reference wavelength of 690 nm using an absorbance microplate reader (SpectraMax 190, Molecular Devices, Sunnyvale, CA, USA). The half-maximal inhibitory concentration (IC50) was calculated based on a four-parameter logistic equation, generating a cell viability curve, using GraphPad Prism 6.01 (GraphPad Software, Inc.). Two concentrations of an established drug, Docetaxel (100 nM and 1 nM), were used in each experiment as a positive control. The resulting absorbance values were used instead of IC50 calculation. Each point was the result of three independent experiments performed in triplicate.

Series [2] relates to PC3 cells. The series can be described thus: Cell viability (MTT) assay, PC3. The class given is cell-based, human. Particulars: for IC50: read-out: IC50 (antiproliferative effect). As to the method: as §1, §2
For series [3], the system named is PC3 cells. The series can be described thus: Cell uptake / intracellular concentration by LC-MS/MS, PC3. Particulars: PC3, 24 h incubation with 10 μM. The class given is in vitro ADME, human. As to the method:
(§3) Therefore, in order to better comprehend the observed activities of our degraders, following incubation of each compound with cells, the intracellular concentrations of the synthesized derivatives were evaluated in different cancer cell lines, as described previously.[28],[29] SKBR3, PC3, or A549 cells were incubated with PROTACs (at a 10 μΜ concentration) for selected time points, respectively. Upon sample treatment, compounds were extracted and analyzed by LC-MS/MS. Table 1 presents the percentage of the molecule that enters the cells after 24 h incubation at the 10 μM concentration. […] The small molecule MYCi361, used as a binding domain component of MYC, was also evaluated in the cell uptake assay (Table 1).
(§4) Cells were plated in 24-well plates at a density of 2 × 10^5 cells/well. 24 h after seeding, cells were incubated with each PROTAC (10 μΜ) for certain time points (1 h, 4 h, 8 h, and 24 h). The incubations were terminated at the selected time points by removing the medium and washing the cells twice with 1 mL cold PBS (1×) in each well in order to remove unbound PROTAC. Subsequently, the cells were lysed by adding a cold solution of ACN:H2O (3:2) and scraping off the cell monolayer. This process was done in two steps: first, 200 μL of ACN:H2O was added, the cells were scraped, and the cell lysate was collected. The second step involved the addition of an extra 100 μL of ACN:H2O, scraping, and collection of the remaining lysate. Samples were subsequently vortexed, sonicated, and centrifuged for 10 min at 13 000 rpm. The supernatants were collected, evaporated for 1 h at 55 °C, and stored at −20 °C until the day of analysis. Samples were then reconstituted in 200 μL of initial mobile phase (100% A), and the intracellular accumulation of PROTACs was determined by LC-MS/MS analysis using Warfarin as a stable internal standard and PROTAC standards for the construction of analytical standard curves.
(§5) The percentage of cell uptake was calculated as follows: [drawing 1]

Series [4] concerns SKBR3 cells. In words: Cell uptake / intracellular concentration by LC-MS/MS, SKBR3. The class given is in vitro ADME, human. As to conditions: SKBR3, 24 h incubation with 10 μM. As to the method: as §3, §4, §5
Another series has as its system MYC:MAX complex. In words: In vitro MYC-MAX binding assay (GST pull-down). It is filed as biochemical. As to conditions: compound 150 μM. As to the method: To assess whether the new degraders affect direct interaction of MYC with MAX, we employed a pull-down approach using recombinant proteins that correspond to the bHLHZ regions of MYC and MAX. GST-MYC, bound to glutathione sepharose beads, was incubated with the pyrazole compounds, followed by incubation with His-MAX. Finally, the complex of GST-MYC/HisMAX was eluted by the addition of excess glutathione, while the amount of the eluted complex was assessed by western blotting using anti-MAX antibodies (Figure 5).
Figure 5 Inhibition of the formation of the MYC:MAX complex by the pyrazole compounds. The indicated compounds (150 μM), or the solvent alone (DMSO, used as a control), were incubated with GST-MYC containing glutathione beads for 10 min at […], followed by incubation with His-MAX. […] The complex of GST-MYC:His-MAX was eluted by incubation of the beads with free glutathione. The amount of the eluted complex was analyzed by western blotting (presented in the inset), using anti-MAX antibodies, while the protein bands were quantified with the ImageJ software. The intensity of the bands is presented in the bar graph. […] Statistics were based on the unpaired two-tailed student’s t-test. Data are shown as mean ± SEM.
MYC–MAX complex formation assays were performed using recombinantly produced GST-MYC and His-MAX proteins, following the glutathione GST pull-down principle (Lentzaris et al., in preparation). In this assay, recombinant GST-MYC bound to glutathione beads was preincubated with the indicated compound or vehicle […]. As a negative control, empty beads, i.e., not loaded with GST-MYC, were used. The formed complex was eluted with glutathione, while the amount of bound MAX (indicating the amount of the generated complex) was assessed by Western blotting using anti-MAX antibodies (Abcam) and quantified based on the image J free software. All assays were carried out at least three independent times.

The subject of the next series is A549 cells. In words: Cell viability (MTT) assay, A549. The class given is cell-based, human. As to conditions: 72 h. As to the method:
as §1
as §2, with “Two concentrations of an established drug, Docetaxel (100 nM and 1 nM), were used in each experiment as a positive control.” left out, “Each point was the result of three independent experiments performed in triplicate.” left out

For the molecule `CC(C)c1ccc(/C=C2\SC(=O)N(CCCCCCCCNC(=O)c3ccc4c(c3)C(=O)N(C3CCC(=O)NC3=O)C4=O)C2=O)cc1` (stereo not shown) [MDEG-541], the concentration for 50% growth inhibition (GI50) is 10.7 µM in the series with PSN1 cells and 14.3 µM with HCT116 cells.
As to `Cc1ncsc1-c1ccc(CNC(=O)[C@@H]2C[C@H](O)CN2C(=O)[C@@H](NC(=O)CCCC(=O)NCCCOc2ccc(-c3cc(C(F)(F)F)nn3C)c(O)c2-c2cc(C(F)(F)F)cc(C(F)(F)F)c2)C(C)(C)C)cc1` [CSI212], on c-MYC, the “MYC degradation (MYC levels by Western blot)” value was “inactive”. In addition, the “IC50 (antiproliferative effect)” value in the series on SKBR3 cells [1] (72 h) and in the series on PC3 cells [2] (72 h) was “did not have any antiproliferative effect; also recorded: inactive” each time.
`Cn1nc(C(F)(F)F)cc1-c1ccc(OCc2ccc(Cl)cc2)c(-c2cc(C(F)(F)F)cc(C(F)(F)F)c2)c1O` [MYCi361, reference compound]: the Uptake by cells in the series with PC3 cells [3] is 28% and 28 ± 5%; in the series on SKBR3 cells [4] it was 19% and 19 ± 1%. Moreover, the “concentration range in which MYC was degraded” value on c-MYC was 5–10 μΜ. Moreover, the concentration for half-maximal inhibition (IC50) with SKBR3 cells [1] (Homo sapiens, SK-BR-3, 72 h, read-out: IC50 (antiproliferative effect)) worked out at 11 ± 4 µM; with PC3 cells [2] (Homo sapiens, PC-3, 72 h) it was 8 ± 1 µM.
`Cn1nc(C(F)(F)F)cc1-c1ccc(OCCCN)c(-c2cc(C(F)(F)F)cc(C(F)(F)F)c2)c1O.O=C(O)C(F)(F)F` [CSI118]: the “inhibition of MYC:MAX complex formation (binding of His-MAX to GST-MYC)” value with MYC:MAX complex is “did not seem to interfere significantly; also recorded: no effect on MYC/MAX dimerization”.
Consider `CCc1ccc(/C=C2/SC(=S)NC2=O)cc1` [Compound 10058-F4, reference compound], for which the half-maximal inhibitory concentration (IC50) in the series with PC3 cells [2] (72 h) is 23 µM and 25 µM.
Consider `Cc1ncsc1-c1ccc(CNC(=O)[C@@H]2C[C@@H](O)CN2C(=O)[C@@H](NC(=O)CNC(=O)CCC(=O)NCCCOc2ccc(-c3cc(C(F)(F)F)nn3C)c(O)c2-c2cc(C(F)(F)F)cc(C(F)(F)F)c2)C(C)(C)C)cc1` [CSI95], for which the “MYC degradation (MYC levels by Western blot)” value on c-MYC is on record as “No particular effect”. Further, the “IC50 (antiproliferative effect)” value with A549 cells and with PC3 cells [2] (72 h) was “inactive” each time. Moreover, the Uptake by cells with SKBR3 cells [4] was 16 ± 5%.

For orientation: GI50 means the concentration at which growth is held to half of that of the control. One may read the IC50 as the concentration that gives 50% inhibition.
